The target of one test is T1, Type-B CCK receptor (Cavia porcellus, UniProt H0VZC5).
T1 construct: Cortical and pancreatic membranes were prepared as described; from tissue; host or cells: guinea pig cerebral cortex membranes
T1 sequence (H0VZC5 1-426): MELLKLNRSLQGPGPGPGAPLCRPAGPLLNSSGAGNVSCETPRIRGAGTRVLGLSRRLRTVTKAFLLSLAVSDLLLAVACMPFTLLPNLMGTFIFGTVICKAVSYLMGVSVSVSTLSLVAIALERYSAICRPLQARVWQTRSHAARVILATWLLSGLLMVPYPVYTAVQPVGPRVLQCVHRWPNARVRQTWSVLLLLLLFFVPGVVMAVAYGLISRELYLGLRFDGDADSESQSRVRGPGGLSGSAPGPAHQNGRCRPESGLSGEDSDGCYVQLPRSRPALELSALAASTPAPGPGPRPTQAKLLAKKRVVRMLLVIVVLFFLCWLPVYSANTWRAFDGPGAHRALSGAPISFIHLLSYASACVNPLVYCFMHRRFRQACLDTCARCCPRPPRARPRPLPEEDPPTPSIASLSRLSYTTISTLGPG
Put plainly: Radioligand binding of [125I]BH-CCK-8 in guinea pig cerebral cortical membrane preparations. The text has this: (§1) CCK-8 [Asp-Tyr(SO3 H)-Met-Gly-Trp-Met-Asp-PheNH2 ], bestatin and phosphoramidion were purchased from Peptide International (Louisville, Ky.). EGTA (ethylene glycol-bis-(β-aminoethyl) N,N,N',N'-tetraacetic acid), HEPES (4-(2-hydroxyethyl)-1-piperazine-enthanesulfonic acid) and BSA (bovine serum albumin) were purchased from Sigma Chemical Co. (St. Louis, Mo.). [^125 I]-Bolton-Hunteer (BH-CCK-8) (specific activity, 2200 Ci/mmol) was obtained from New England Nuclear (Boston, Mass.). Male guinea pigs, 250 to 325 g, were obtained from Scientific Small Animal Laboratory and Farm (Arlington Heights, Ill.). Collagenase, code CLSPA was purchased from Worthington (Frehold, N.J.).
(§2) Protocol For Radioligand Binding Experiments in Guinea Pig Cerebral Cortical and Pancreatic Membrane Preparations
(§3) Cortical and pancreatic membranes were prepared as described (Lin and Miller; J. Pharmacol. Exp. Ther. 1985, 232:775-780,). In brief, cortex and pancreas were removed and rinsed with ice-cold saline. Visible fat and connective tissues were removed from the pancreas. […] The homogenates were entrifuged for 10 minutes at 1075×g and pellets were discarded. The supernatants were saved and centrifuged at 38,730×g for 20 minutes. The resultant pellets were rehomogenized in 25 mL of 50 mM Tris-HCl buffer with a Teflon-glass homogenizer, 5 up and down strokes. The homogenates were centrifuged again at 38,730×g for 20 minutes. Pellets werre then resuspended in 20 mM HEPES, containing 1 mM EGTA, 118 mM NaCl, 4.7 mM KCl, 5 mM MgCl2, 100 μM bestatin, 3 μM phosphoramidon, pH 7.4 at 22° C. with a Teflon-glass homogenizer, 15 up and down strokes. Resuspension volume for the cortex was 15-18 mL per gram of original wet weight and 60 mL per gram for the pancreas.
(§4) [^125 I]Bolton-Hunter CCK-8 and test compounds were diluted with HEPES-EGTA-salt buffer (see above) containing 0.5% BSA. To 1 mL Skatron polystyrene tubes were added 25 μL of test compounds, 25 μL of [^125 I]BH-CCK-8 and 200 μL of membrane suspension. The final BSA concentration was 0.1%. The cortical tissues were incubated at 30° C. for 150 minutes and pancreatic tissues were incubated at 37° C. for 150 min. Incubations were terminated by filtration using Skatron Cell Harvester and SS32 microfiber filter mats. […] IC50 s were determined from the Hill analysis.

The target in the next test is T2, Type-A CCK receptor (Cavia porcellus, UniProt Q63931).
T2 construct: Cortical and pancreatic membranes were prepared as described; from tissue; host or cells: guinea pig pancreas membranes
T2 sequence (Q63931 1-430): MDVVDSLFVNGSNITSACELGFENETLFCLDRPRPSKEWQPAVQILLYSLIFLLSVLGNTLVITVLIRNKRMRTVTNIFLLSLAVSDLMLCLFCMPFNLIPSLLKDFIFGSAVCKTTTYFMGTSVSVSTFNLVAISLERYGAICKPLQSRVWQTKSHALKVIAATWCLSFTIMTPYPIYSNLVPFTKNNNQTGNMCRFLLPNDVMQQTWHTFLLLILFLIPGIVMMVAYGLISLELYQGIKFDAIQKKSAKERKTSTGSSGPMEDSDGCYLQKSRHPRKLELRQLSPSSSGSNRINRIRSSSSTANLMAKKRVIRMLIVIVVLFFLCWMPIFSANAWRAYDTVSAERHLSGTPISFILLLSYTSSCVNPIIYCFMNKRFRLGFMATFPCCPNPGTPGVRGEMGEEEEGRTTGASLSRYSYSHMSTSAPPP
Put plainly: Radioligand binding of [125I]BH-CCK-8 in guinea pig pancreatic membrane preparations.
Description: as §1, §2, §3, §4

[1] abbreviates: IC50 (nM) 125I-BH-CCK-8 Type-B receptor, guinea pig cortical membranes, 30° C., 150 minutes.
Where [2] appears, read: IC50 (nM) 125I-BH-CCK-8 Type-A receptor, guinea pig pancreatic membranes, 37° C., 150 min.
Setting [3] is: guinea pig cortical membranes, 30° C., 150 minutes, read-out: IC50 (nM) 125I-BH-CCK-8 Type-B receptor.
Where [4] appears, read: guinea pig pancreatic membranes, 37° C., 150 min, read-out: IC50 (nM) 125I-BH-CCK-8 Type-A receptor.

From patent US5270302A, “Derivatives of tetrapeptides as CCK agonists” (priority 1991, dated 1993) come the findings set out here.

Each structure is given as a SMILES string. Where two headings read alike, the source gives them in different places. *1 amine or outer side, *2 acyl side, *3 side chain or, on linkers, in order; H or OH if unused. Where a SMILES comes first, the peptide text is derived from it. Side-chain parts run from the residue outwards. [ ]: non-standard residue; d: D form. The star is where a group is joined. ξ: configuration not given here. Propanoyl(3,3-Ph2) = O=C(CC(c1ccccc1)c1ccccc1)*; NMeW = CN[C@@H](Cc1c[nH]c2ccccc12)C(=O)O; ξαMeW = CC(N)(Cc1c[nH]c2ccccc12)C(=O)O; NH(1-naphthyl) = c1ccc2c(N*)cccc2c1; NMeF = CN[C@@H](Cc1ccccc1)C(=O)O; X10 = COc1ccc(C=CC(=O)*)c(OC)c1; NMeD = CN[C@@H](CC(=O)O)C(=O)O; NH(2-Me-phenyl) = Cc1ccccc1N*; X1 = O=C(C=Cc1ccc(O)cc1)*; PhAc = O=C(Cc1ccccc1)*; X26 = Clc1cccc(Cl)c1N*; Boc = CC(C)(C)OC(=O)*; X3 = O=C(C=Cc1cccs1)*; CO = O=C([*:1])[*:2]; Bz = O=C(c1ccccc1)*; NHtBu = CC(C)(C)N*

As a reminder, the IC50 is the midpoint of a concentration-inhibition curve.

In the case of `Cc1ccccc1NC(=O)NCCCC[C@H](NC(=O)[C@H](Cc1c[nH]c2ccccc12)NC(=O)Cc1ccccc1)C(=O)N[C@@H](CC(=O)O)C(=O)N(C)[C@@H](Cc1ccccc1)C(N)=O` [Example 91, Phenylacetyl-Trp-Lys(ε-N-(2-methylphenyl)aminocarbonyl)-Asp-(NMe)PheNH2] (PhAc-WK([CO-NH(2-Me-phenyl)])D[NMeF]-NH2), the IC50 at Type-B CCK receptor (setting [1]) was above 10000 nM; on Type-A CCK receptor (setting [2]), 19 nM. In the same order, the values of `Cc1ccccc1NC(=O)NCCCC[C@H](NC(=O)C(C)(Cc1c[nH]c2ccccc12)NC(=O)OC(C)(C)C)C(=O)N[C@@H](CC(=O)O)C(=O)N[C@@H](Cc1ccccc1)C(N)=O` (stereo partly drawn) [Example 96, t-BOC-D,L-(α-methyl)Trp-Lys(ε-N-(2-methylphenyl)aminocarbonyl)-Asp-PheNH2] (Boc-[ξαMeW]K([CO-NH(2-Me-phenyl)])DF-NH2) are 9300 nM and 16 nM.

Take `Cc1ccccc1NC(=O)NCCCC[C@H](NC(=O)C(C)(N)Cc1c[nH]c2ccccc12)C(=O)N(C)[C@@H](CC(=O)O)C(=O)N[C@@H](Cc1ccccc1)C(N)=O` (stereo partly shown) [Example 123] (H-[ξαMeW]K([CO-NH(2-Me-phenyl)])[NMeD]F-NH2): the values for the half-maximal inhibitory concentration (IC50) on Type-B CCK receptor (setting [1]) and on Type-A CCK receptor (setting [2]) were above 10000 nM and 5.9 nM, respectively. Turning to `Cc1ccccc1NC(=O)NCCCC[C@H](NC(=O)C(F)Cc1c[nH]c2ccccc12)C(=O)N[C@@H](CC(=O)O)C(=O)N(C)[C@@H](Cc1ccccc1)C(N)=O` (stereo partly shown) [Example 108, (2-Fluoro-3-(3-indolyl)propionyl)-Lys(ε-N-(2-methylphenyl)aminocarbonyl)-Asp-(NMe)PheNH2], the half-inhibitory concentration (IC50) stood at 10000 nM on Type-B CCK receptor (setting [3]) and 14 nM at Type-A CCK receptor (setting [4]). In the same order, the values of `CN(C(=O)[C@H](CCCCNC(=O)C=Cc1cccs1)NC(=O)[C@H](Cc1c[nH]c2ccccc12)NC(=O)OC(C)(C)C)[C@@H](CC(=O)O)C(=O)N[C@@H](Cc1ccccc1)C(N)=O` [Example 66, t-BOC-Trp-Lys-(ε-N-3-(2-thienyl)acrylyl)-(NMe)Asp-PheNH2] (Boc-WK(X3)[NMeD]F-NH2) are 8100 nM and 35 nM. In the same order, the values of `COc1ccc(C=CC(=O)NCCCC[C@H](NC(=O)[C@H](Cc2c[nH]c3ccccc23)NC(=O)OC(C)(C)C)C(=O)N[C@@H](CC(=O)O)C(=O)N[C@@H](Cc2ccccc2)C(N)=O)c(OC)c1` [Example 23, t-BOC-Trp-Lys(ε-N-(2,4-dimethoxycinnamoyl))-Asp-PheNH2] (Boc-WK(X10)DF-NH2) are 3000 nM and 130 nM. Consider `Cc1ccccc1NC(=O)NCCCC[C@H](NC(=O)[C@H](Cc1c[nH]c2ccccc12)NC(=O)NC(C)(C)C)C(=O)N[C@@H](CC(=O)O)C(=O)N(C)[C@@H](Cc1ccccc1)C(N)=O` [Example 82, t-Butylaminocarbonyl-Trp-Lys(ε-N-(2-methylphenyl)aminocarbonyl)-Asp(NMe)PheNH2] ({NHtBu-CO}-WK([CO-NH(2-Me-phenyl)])D[NMeF]-NH2), for which the IC50 at Type-B CCK receptor was found to be 4400 nM; on Type-A CCK receptor, 4.9 nM. Take `CN[C@@H](Cc1c[nH]c2ccccc12)C(=O)N[C@@H](CCCCNC(=O)Nc1ccccc1C)C(=O)N[C@@H](CC(=O)O)C(=O)N(C)[C@@H](Cc1ccccc1)C(N)=O` [Example 101, (NMe)Trp-Lys(ε-N-(2-methylphenyl)aminocarbonyl)-Asp-(NMe)PheNH2] (H-[NMeW]K([CO-NH(2-Me-phenyl)])D[NMeF]-NH2): the half-maximal inhibitory concentration (IC50) was 12000 nM on Type-B CCK receptor (setting [1]) and 9.3 nM at Type-A CCK receptor (setting [2]). For the compound `Cc1ccccc1NC(=O)NCCCC[C@H](NC(=O)CCc1cccc2ccccc12)C(=O)N[C@@H](CC(=O)O)C(=O)N(C)[C@@H](Cc1ccccc1)C(N)=O` [Example 111, (3-(α-Naphthyl)propionyl)-Lys(ε-N-(2-methylphenyl)aminocarbonyl)-Asp-(NMe)PheNH2], the values for the IC50 at Type-B CCK receptor (setting [3]) and at Type-A CCK receptor (setting [4]) were above 10000 nM and 77 nM, respectively. In the case of `Cc1ccccc1NC(=O)NCCCC[C@H](NC(=O)[C@H](Cc1c[nH]c2ccccc12)NC(=O)c1ccccc1)C(=O)N(C)[C@@H](CC(=O)O)C(=O)N[C@@H](Cc1ccccc1)C(N)=O` [Example 90, Benzoyl-Trp-Lys(ε-N-(2-methylphenyl)aminocarbonyl)-(NMe)Asp-PheNH2] (Bz-WK([CO-NH(2-Me-phenyl)])[NMeD]F-NH2), the half-maximal inhibitory concentration (IC50) on Type-B CCK receptor (setting [1]) amounted to 5100 nM; on Type-A CCK receptor (setting [2]), 2.7 nM.

On to `Cc1ccccc1NC(=O)NCCCC[C@H](NC(=O)[C@H](Cc1c[nH]c2ccccc12)NC(=O)CC(c1ccccc1)c1ccccc1)C(=O)N[C@@H](CC(=O)O)C(=O)N(C)[C@@H](Cc1ccccc1)C(N)=O` [Example 92, (3,3-Diphenylpropionyl)-Trp-Lys(ε-N-(2-methylphenyl)aminocarbonyl)-Asp-(NMe)PheNH2] ({Propanoyl(3,3-Ph2)}-WK([CO-NH(2-Me-phenyl)])D[NMeF]-NH2), for which the concentration for half-maximal inhibition (IC50) at Type-B CCK receptor stood at 5000 nM; at Type-A CCK receptor, 5.6 nM. Consider `CN(C(=O)[C@H](CCCCNC(=O)C=Cc1ccc(O)cc1)NC(=O)[C@H](Cc1c[nH]c2ccccc12)NC(=O)OC(C)(C)C)[C@@H](CC(=O)O)C(=O)N(C)[C@@H](Cc1ccccc1)C(N)=O` [Example 72, t-BOC-Trp-Lys(ε-N-(4-hydroxycinnamoyl))-(NMe)Asp-(NMe)PheNH2] (Boc-WK(X1)[NMeD][NMeF]-NH2), for which the 50% inhibitory concentration (IC50) on Type-B CCK receptor (setting [3]) was above 9000 nM; on Type-A CCK receptor (setting [4]), 12 nM. The compound `CC(C)(C)OC(=O)N[C@@H](Cc1c[nH]c2ccccc12)C(=O)N[C@@H](CCCCNC(=O)Nc1cccc2ccccc12)C(=O)N[C@@H](CC(=O)O)C(=O)N[C@@H](Cc1ccccc1)C(N)=O` [Example 28, t-BOC-Trp-Lys(ε-N-(α-naphthyl)aminocarbonyl)-Asp-PheNH2] (Boc-WK([CO-NH(1-naphthyl)])DF-NH2) had an IC50 at Type-B CCK receptor of 10000 nM.

As to `CC(C)(C)OC(=O)N[C@@H](Cc1c[nH]c2ccccc12)C(=O)N[C@@H](CCCC/N=C(\S)Nc1ccccc1Cl)C(=O)N[C@@H](CC(=O)O)C(=O)N[C@@H](Cc1ccccc1)C(N)=O` [Example 37, t-BOC-Trp-Lys(ε-N-(2-chlorophenyl)aminothiocarbonyl)-Asp-PheNH2], the 50% inhibitory concentration (IC50) on Type-B CCK receptor (setting [3]) is 2900 nM. Still for that read-out and setting: next, `CC(C)(C)OC(=O)N[C@@H](Cc1c[nH]c2ccccc12)C(=O)N[C@@H](CCCCNC(=O)Nc1c(Cl)cccc1Cl)C(=O)N[C@@H](CC(=O)O)C(=O)N[C@@H](Cc1ccccc1)C(N)=O` [Example 47, t-BOC-Trp-Lys(ε-N-(2,6-dichlorophenyl)aminocarbonyl)-Asp-PheNH2] (Boc-WK([CO-X26])DF-NH2): 7000 nM; `CC(C)(C)NC(=O)NCCCC[C@H](NC(=O)[C@H](Cc1c[nH]c2ccccc12)NC(=O)OC(C)(C)C)C(=O)N[C@@H](CC(=O)O)C(=O)N[C@@H](Cc1ccccc1)C(N)=O` [Example 32, t-BOC-Trp-Lys(ε-N-(t-butylaminocarbonyl))-Asp-PheNH2] (Boc-WK([CO-NHtBu])DF-NH2): 5600 nM.
